In ChEMBL document CHEMBL1201862, “PubChem BioAssay data set” (2004):
Calls of active or inactive are those of the source.

What was measured:
[1] = growth suppression of PTEN-null colon cells, dose response, cell-based, HCT116 PTEN knockout (AID 1047); format: functional;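 further: HCT116 colon tumor cells with PTEN knocked out; cells exposed to compound for 60 hours before readout; potency for loss of cell viability measured by luminescence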
[2] = growth suppression of beta-catenin-knockout colon cells, dose response, cell-based, HCT116, human colon tumor (AID 1045); format: functional;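 further: HCT116 colon tumor cells with beta catenin knocked out; cells exposed to compound for 60 hours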
[3] = target: FAD-linked sulfhydryl oxidase ALR (Homo sapiens, UniProt P55789); test: inhibitors of human ALR sulfhydryl oxidase, dose response, biochemical, H2O2 detection, luminescence, cherry-pick (AID 493248)
Chain of FAD-linked sulfhydryl oxidase ALR (P55789 whole entry): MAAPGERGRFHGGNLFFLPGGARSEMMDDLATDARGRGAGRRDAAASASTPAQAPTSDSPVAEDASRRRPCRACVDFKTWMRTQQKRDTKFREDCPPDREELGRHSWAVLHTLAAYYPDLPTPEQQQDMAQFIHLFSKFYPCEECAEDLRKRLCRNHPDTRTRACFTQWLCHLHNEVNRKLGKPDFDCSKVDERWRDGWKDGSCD

[4] = target: T1, Polyadenylate-binding protein 1 (Homo sapiens, UniProt P11940); test: PABP1 MLLE–PAM2 interaction inhibitors, dose response, miRNA deadenylation inhibitor project, biochemical, fluorescence polarization, Cy5-PAM2 peptide, secondary (AID 602260); format: functional; settings: read-out: IC50_Mean
T1 sequence (P11940 whole entry): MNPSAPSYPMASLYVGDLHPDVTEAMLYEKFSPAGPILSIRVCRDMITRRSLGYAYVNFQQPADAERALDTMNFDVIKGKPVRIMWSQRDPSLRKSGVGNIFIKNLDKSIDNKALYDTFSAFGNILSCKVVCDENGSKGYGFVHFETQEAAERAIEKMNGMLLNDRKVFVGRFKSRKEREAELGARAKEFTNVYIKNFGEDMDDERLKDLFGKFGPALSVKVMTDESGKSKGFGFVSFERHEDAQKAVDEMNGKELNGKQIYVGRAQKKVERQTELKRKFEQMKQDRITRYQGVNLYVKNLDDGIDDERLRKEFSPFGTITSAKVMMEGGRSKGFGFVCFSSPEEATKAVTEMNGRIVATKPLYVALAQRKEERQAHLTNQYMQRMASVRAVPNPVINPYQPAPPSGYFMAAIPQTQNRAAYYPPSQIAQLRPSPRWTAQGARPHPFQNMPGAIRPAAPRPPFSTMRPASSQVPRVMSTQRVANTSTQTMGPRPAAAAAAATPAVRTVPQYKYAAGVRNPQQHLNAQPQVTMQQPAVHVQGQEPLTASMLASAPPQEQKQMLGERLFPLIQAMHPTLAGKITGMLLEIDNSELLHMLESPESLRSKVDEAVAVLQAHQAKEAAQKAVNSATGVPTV

[5] = target: T1, Polyadenylate-binding protein 1; test: PABP1 MLLE–PAM2 binding inhibitor potency, dose response, biochemical, fluorescence polarization, FITC-PAM2 peptide (AID 602259); format: functional; settings: read-out: IC50_Mean
[6] = P. falciparum Dd2 growth inhibitors, dose response, SYBR Green, cherry-picked samples (AID 1159567); format: functional, cell-based
Streptococcus = test: Group A Streptococcus viability loss, dose response, counter-screen for streptokinase expression inhibitor project, luminescence, BacTiterGlo (AID 1915); format: functional, organism-based;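 further: potency for reduction of bacterial viability or growth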
[7] = tested on: Streptococcus sp. 'group A'; test: growth inhibition of control SK(-) GAS strain, dose response, counter-screen for streptokinase expression inhibitor project, luminescence, kanamycin, BacTiterGlo, confirmation (AID 1900); format: functional, organism-based
[8] = target: T2, Rac GTPase-activating protein 1 (Homo sapiens, UniProt Q9H0H5); test: MgcRacGAP GTPase-activating activity inhibitors, confirmation, biochemical, ADP Hunter fluorescence, primary and confirmatory (AID 624330); format: functional
T2 sequence (Q9H0H5 whole entry): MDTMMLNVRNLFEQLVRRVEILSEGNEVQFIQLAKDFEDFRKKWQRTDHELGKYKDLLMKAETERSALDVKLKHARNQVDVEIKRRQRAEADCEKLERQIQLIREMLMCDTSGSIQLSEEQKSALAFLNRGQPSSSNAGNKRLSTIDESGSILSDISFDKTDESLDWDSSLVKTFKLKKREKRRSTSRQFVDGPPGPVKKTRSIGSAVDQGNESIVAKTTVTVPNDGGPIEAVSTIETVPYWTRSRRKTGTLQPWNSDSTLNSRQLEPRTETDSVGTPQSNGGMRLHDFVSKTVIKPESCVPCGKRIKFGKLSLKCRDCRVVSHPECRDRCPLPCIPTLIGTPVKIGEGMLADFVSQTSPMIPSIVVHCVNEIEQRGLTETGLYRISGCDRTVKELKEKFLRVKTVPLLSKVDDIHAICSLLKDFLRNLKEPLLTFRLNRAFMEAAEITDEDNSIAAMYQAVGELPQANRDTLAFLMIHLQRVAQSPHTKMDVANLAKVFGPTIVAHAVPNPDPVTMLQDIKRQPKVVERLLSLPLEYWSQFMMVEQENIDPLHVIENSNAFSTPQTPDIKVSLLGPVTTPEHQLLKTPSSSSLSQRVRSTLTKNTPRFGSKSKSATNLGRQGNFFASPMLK

[9] = target: T3, Ubiquitin-conjugating enzyme E2 N (Homo sapiens, UniProt P61088); format: functional;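 further: Dose-response confirmation in a TR-FRET assay detecting UBC13-driven polyubiquitin chain formation, inhibition measured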
T3 sequence (P61088 whole entry): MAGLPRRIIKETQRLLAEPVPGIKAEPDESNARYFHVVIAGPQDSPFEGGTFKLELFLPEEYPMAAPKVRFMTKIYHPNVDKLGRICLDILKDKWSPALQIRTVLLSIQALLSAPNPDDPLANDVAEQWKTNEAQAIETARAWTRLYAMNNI

[10] = cytotoxicity toward NIH3T3 fibroblasts, dose response, counter-screen, cell-based, ATP luminescence, mouse fibroblasts (AID 2010); format: functional;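 further: cells exposed to compound for about 90 hours before reading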
[11] = inhibitors of intracellular T. cruzi replication, confirmation, NIH3T3 host cells, beta-gal luminescence (AID 2044); format: functional, cell-based;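 further: intracellular parasites grown in NIH/3T3 mouse fibroblasts as host cells; luminescent beta-galactosidase reporter signal from transgenic T. cruzi replicating inside host cells; inhibitors lower the luminescence signal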
[12] = C. albicans growth with fluconazole, confirmation, fluorescence, retest (AID 2467); format: functional, cell-based
[13] = NIH-3T3 fibroblast cytotoxicity, dose response, cytotoxicity control, cell-based, fluorescence, Alamar Blue, secondary assay (AID 2327); format: functional;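 further: NIH-3T3 mouse fibroblasts cultured with fluconazole at 8 µg/mL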
[14] = Luminescence Cell-Based Dose Confirmation HTS to Identify Activators of 5'UTR Stem-Loop Driven Alpha-Synuclein mRNA Translation in H4 Neuroglioblastoma Cells. [Related pubchem assays: 1829 (Project Summary), 1814 (Primary HTS)]; format: functional
[15] = Luminescence Cell-Based Dose Response HTS to Identify Activators of Luciferase Translation or Activity in H4 […] Cells. [Related pubchem assays: 1829 (Project Summary), 1814 (Primary HTS)]; format: functional
H4 = test: Luminescence Cell-Based Dose Response HTS to Identify Activators of 5'UTR Stem-Loop Driven Prion Protein mRNA Translation in H4 Neuroglioblastoma Cells. [Related pubchem assays: 1829 (Project Summary), 1814 (Primary HTS)]; format: functional; settings: Homo sapiens
[16] = inhibitors of firefly luciferase expression or activity, dose response, H4 neuroglioma cells, luminescence (AID 1990); format: functional, cell-based
[17] = Luminescence Cell-Based Dose Response HTS to Identify Inhibitors of 5'UTR Stem-Loop Driven Prion Protein mRNA Translation in H4 Neuroglioblastoma Cells. [Related pubchem assays: 1827 (Project Summary), 1813 (Primary HTS)]; format: functional
[18] = inhibitors of SNCA 5'UTR-driven reporter translation, confirmation, H4 neuroglioma cells, luminescence (AID 1988); format: functional, cell-based
[19] = control 3'UTR Renilla luciferase suppression, dose response, counter-screen for Shn3 inhibitor project, cell-based, Clone20-Shn3RL, cherry-picked (AID 624133); format: functional
Streptokinase A = target: T4, Streptokinase A (Streptococcus pyogenes serotype M1, UniProt P10520); test: S. pyogenes streptokinase expression inhibitors, potency, dose response, plasminogen activation absorbance, OD405 (AID 1914); format: functional, Streptococcus pyogenes M1 GAS;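 further: secreted streptokinase activity via plasminogen activation per viability signal from cell pellet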
T4 sequence (P10520 whole entry): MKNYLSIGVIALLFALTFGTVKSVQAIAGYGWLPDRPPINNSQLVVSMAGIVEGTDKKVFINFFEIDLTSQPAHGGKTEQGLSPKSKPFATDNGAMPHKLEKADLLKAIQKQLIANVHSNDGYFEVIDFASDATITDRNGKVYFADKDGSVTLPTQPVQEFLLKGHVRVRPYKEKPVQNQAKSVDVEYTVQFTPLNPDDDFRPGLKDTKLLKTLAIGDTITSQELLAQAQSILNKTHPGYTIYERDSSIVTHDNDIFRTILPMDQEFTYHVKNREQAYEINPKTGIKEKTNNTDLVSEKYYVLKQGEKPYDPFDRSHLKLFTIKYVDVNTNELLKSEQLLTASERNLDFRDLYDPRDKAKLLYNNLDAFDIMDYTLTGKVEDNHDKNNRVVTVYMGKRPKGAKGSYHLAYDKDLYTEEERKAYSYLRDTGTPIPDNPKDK

COc1ccc2oc(C(=O)c3ccccc3)c(NC(=O)CN3CCN(C)CC3)c2c1
EC50 [1]: 15.9 µM (active)
EC50 [2]: 14.1 µM (active)

Cc1ccc2[nH]c(CCc3ccc(N)cc3)nc2c1
AC50 [3]: 0.018 µM (active)

O=C(c1oc2ccccc2c1CSCc1ccccc1)N1CCN(c2ncccn2)CC1
IC50 [4]: > 66 µM (inactive)
IC50 [5]: 38.5 µM (inactive)

COc1ccccc1NC(=O)N1CCCCN2[C@@H](CO)[C@H](c3ccc(C#CC4CC4)cc3)[C@@H]2C1
AC50 [6]: 5.48 µM (active)

CCOC(=O)c1nc(Nc2ccc(C)cc2)c2ccccc2n1
IC50 [4]: > 66 µM (inactive)
IC50 [5]: > 66 µM (inactive)

CC(C(=O)NC1C(=O)N2C(C(=O)O)=C(CSc3nnnn3C)CSC12)n1cc(Cl)cn1 (stereo not given)
EC50 (Streptococcus): 0.343 µM (active)
IC50 [4]: > 66 µM (inactive)
IC50 [5]: > 66 µM (inactive)
EC50 [7]: 0.161 µM (active)

CN(C)c1ccc(/C=N/NC(=O)CCc2c[nH]c3ccccc23)cc1
AC50 [3]: 2.11 µM (active)

COc1ccc(NC(=O)CSc2nnc(-c3ccccc3C)n2N)cc1
IC50 [4]: > 66 µM (inactive)
IC50 [5]: > 66 µM (inactive)

Cc1nn(C)c(C(=O)NC(=S)Nc2ccc([N+](=O)[O-])cc2)c1Cl
IC50 [4]: > 66 µM (inactive)
IC50 [5]: > 66 µM (inactive)

OCC(O)CN=C(S)NC1CCCCC1 (stereo not given)
IC50 [4]: > 66 µM (inactive)
IC50 [5]: > 66 µM (inactive)

Cc1cc(C)n(N=C(S)NC2CCCC2)c(=O)c1C#N
IC50 [4]: > 66 µM (inactive)
IC50 [5]: > 66 µM (inactive)

CCOc1ccccc1Oc1c[nH]nc1-c1ccc(O)cc1O
IC50 [8]: 35.5 µM (active)

CC(=O)n1cc([C@H]2C=C(C(=O)Nc3ccccc3)O[C@@H](OCCCCO)C2)c2ccccc21
IC50 [9]: > 20 µM (inactive)

O=C1/C(=C\c2cccnc2)CCc2ccccc21
EC50 [1]: 15.4 µM (active)
EC50 [2]: 14.5 µM (active)

Cc1ccc(SCCN2CCN(Cc3ccccc3)CC2)cc1
IC50 [8]: 84.8 µM (active)
EC50 [10]: > 60 µM (not active)
EC50 [11]: 0.549 µM (active)

CCc1sc(N2[C@@H](C#N)[C@@H](c3ccccc3-c3ccccc3)[C@@H]2CO)nc1C
AC50 [6]: 8.33 µM (active)

CC[C@@H](C)[C@@H]1CN([C@@H](CN2CCC[C@H]2CN2C(N)=NC[C@@H]2Cc2ccccc2)C(C)C)C(=N)N1CCCC1CCCC1
IC50 [9]: > 20 µM (inactive)

O=C(O/N=C1/CCSc2ccccc21)c1ccc(F)cc1
EC50 [12]: > 38 µM (not active)
EC50 [13]: 30.1 µM (active)

CC(C)NC(=S)N/N=C/c1ccc(C(C)(C)C)cc1
EC50 [12]: > 38 µM (not active)
EC50 [13]: 91.3 µM (inconclusive)

COc1cccc(N2C(=O)CC(N3CCc4ccccc43)C2=O)c1 (stereo not given)
AC50 [3]: 1.21 µM (active)

CC(C)Oc1ccc(Cl)cc1Nc1nc(NCCO)nc(N2CCCC2)n1
IC50 [9]: > 20 µM (inactive)

Cc1ccc(NC(=S)c2nc3ccccc3[nH]2)cc1
EC50 [12]: > 38 µM (not active)
EC50 (Streptococcus): 7.64 µM (active)
EC50 [1]: 26.3 µM (active)
EC50 [13]: > 160 µM (inactive)
EC50 [2]: 19.2 µM (active)
EC50 [7]: 3.7 µM (active)

C[C@@H]1CN([C@H](C)CO)C(=O)c2cc(C#Cc3ccccc3F)cnc2O[C@H]1CN(C)C(=O)c1ccc2c(c1)OCO2
AC50 [6]: 3.31 µM (active)

CCOC(=O)c1c(CN2CCN(c3ccccc3)CC2)oc2ccc(O)cc12
IC50 [9]: > 20 µM (inactive)

COc1ccc(N2C(=O)/C(=C/N(C)C)NC2=S)cc1
IC50 [8]: 75.4 µM (active)

OCCNc1nc(Nc2cc(Cl)ccc2OC2CCCC2)nc(N2CCCC2)n1
IC50 [9]: > 20 µM (inactive)

CSCCO/C(O)=C1/Sc2cc(C)ccc2N=C1C
IC50 [8]: 52.9 µM (active)

CCN(CC)c1ccc(/C=N/NC(=O)Nc2nonc2N)cc1
EC50 [14]: 98.8 µM (active)
AC50 [3]: 1.38 µM (active)
EC50 [15]: 7.18 µM (active)
EC50 (H4): 30.9 µM (active)

CC(C)(C)[S@@+]([O-])N1Cc2cc(C(=O)NCCN3CCCC3)nc(-c3cccc(-c4ccc(C#N)cc4)c3)c2[C@H]1CCO
AC50 [6]: 4.66 µM (active)

COc1ccc(-c2n(C)c3ccccc3[n+]2CC(=O)OC2CC(C)CCC2C(C)C)cc1 (stereo not given)
EC50 [16]: 8.73 µM (active)
EC50 [12]: 0.25 µM (active)
EC50 [17]: 10.9 µM (active)
EC50 [18]: 8.61 µM (active)
EC50 [13]: 17.4 µM (inconclusive)

CC(Cc1cccs1)NC(=O)Nc1ccc(F)cc1 (stereo not given)
AC50 [19]: 28.8 µM (active)

COc1ccc(N2CCN(S(=O)(=O)c3c(C)nc4scc(C)n4c3=O)CC2)cc1
IC50 [8]: 209 µM (active)

COc1ccc2c3c([nH]c2c1)[C@@H](CO)N(C(=O)c1cccc(F)c1)CC31CCN(C(=O)c2ccccc2)CC1
AC50 [6]: 5.71 µM (active)

N#Cc1cnn(-c2ccccc2)c1NC(=O)CN1CCN(c2ccccc2)CC1
AC50 [3]: 13.4 µM (active)

CCn1c(C)nc2cc(C(=O)NN=C(S)Nc3ccc(Cl)cc3Cl)ccc21
EC50 [12]: 6.98 µM (active)
EC50 [13]: > 160 µM (inactive)

COc1cc(Nc2c([N+](=O)[O-])nn(-c3ccc4c(c3)OCCO4)[n+]2[O-])cc(OC)c1
EC50 (Streptococcus): 19 µM (active)
EC50 (Streptokinase A): > 150 µM (not active)
EC50 [1]: 2.29 µM (active)
EC50 [2]: 1.78 µM (active)
EC50 [7]: 2.35 µM (active)

COc1cccc(C(=O)NC2=NCCS2)c1OC
IC50 [4]: > 66 µM (inactive)
IC50 [5]: > 66 µM (inactive)

CC(C)C[C@H](NC(=O)c1[nH]cnc1C(=O)N[C@@H](CCCCN)C(=O)OC(C)(C)C)C(=O)OC(C)(C)C
IC50 [9]: > 20 µM (inactive)

O=C(CSc1nc(-c2ccccc2)cs1)Nc1nccs1
EC50 [12]: > 38 µM (not active)
EC50 [13]: > 160 µM (inactive)

CCOC(=O)c1c(NC(=O)C2Cc3ccccc3C(=O)O2)sc2c1CCCC2 (stereo not given)
EC50 [12]: > 38 µM (not active)
EC50 [13]: > 160 µM (inactive)

COc1ccc(CCNCc2cccc(C(F)(F)F)c2)cc1OC
IC50 [8]: 186 µM (active)

C=CCn1c(SCC(=O)c2c(N)n(C)c(=O)n(C)c2=O)nc2sc(CC)cc2c1=O
EC50 [1]: 26.2 µM (active)
EC50 [2]: 23.3 µM (active)

O=C(c1cccc(F)c1)N1CCC(c2nc3ccccc3s2)CC1
AC50 [3]: 0.433 µM (active)

O=C(NNC(=O)c1ccccc1O)c1ccc(Cl)c(S(=O)(=O)N2CCCCC2)c1
AC50 [3]: 56.4 µM (active)
